# Laboratory results published in publication PMC7760838, “Synthesis, Biological, and Computational Evaluation of Antagonistic, Chiral Hydrobenzoin Esters of Arecaidine Targeting mAChR M1” (Pharmaceuticals, 2020).
# Tests used:
# [1] = target: T1, mAChR M1 (Homo sapiens, UniProt P11229); experiment: competitive radioligand binding assay with [3H]NMS on CHO cell membranes, M1; details: for Ki: CHO cell membranes, [3H]NMS, n ≥ 3, ± standard deviation, read-out: Inhibition constants (Ki) M1
# T1 construct: host or cells: CHO-K1
# T1 sequence (P11229 1-460): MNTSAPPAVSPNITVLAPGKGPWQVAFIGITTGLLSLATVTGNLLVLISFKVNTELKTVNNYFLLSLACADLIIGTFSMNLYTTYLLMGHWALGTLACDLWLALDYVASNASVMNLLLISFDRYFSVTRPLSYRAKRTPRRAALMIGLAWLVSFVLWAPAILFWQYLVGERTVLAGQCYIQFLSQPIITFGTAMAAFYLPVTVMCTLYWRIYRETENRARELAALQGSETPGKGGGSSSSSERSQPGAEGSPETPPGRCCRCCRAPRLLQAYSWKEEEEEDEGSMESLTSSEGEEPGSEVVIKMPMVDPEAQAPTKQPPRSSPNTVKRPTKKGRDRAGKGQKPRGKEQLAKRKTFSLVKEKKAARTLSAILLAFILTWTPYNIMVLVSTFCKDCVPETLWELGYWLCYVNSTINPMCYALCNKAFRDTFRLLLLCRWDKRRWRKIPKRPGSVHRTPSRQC
# Method: (§1) Cell membranes bearing human mAChRs M1-M5 were prepared as described previously. In short, stably transfected CHO cells were grown to confluence in T175 flasks, washed with ice-cold DPBS, and suspended in 2 mL 10 mM Tris/HCl, 1 mM EDTA-buffer (pH 7.4), and 200 µL protease inhibitor using a cell scraper. A cell homogenate was prepared by passing the cell suspension through a G29 needle and subsequently centrifuged (10 min, 1000× g, 4 °C). Ultracentrifugation of the supernatant (30 min, 100,000× g, 4 °C) yielded a membrane pellet, which was suspended in 125 µL 50 mM Tris/HCl-buffer (pH 7.4) per T175 flask and stored at −80 °C. Ten confluent T175 flask were processed for one batch.
# (§2) The membrane-bound activity was recovered by filtration through GF/B filter paper pre-soaked in 0.1 % PEI and measured with a liquid scintillation counter. Maximum binding was measured by using 5 µL plain DMSO, and nonspecific binding was measured by using 5 µL 1 µM scopolamine in DMSO. […] Then, 3–12 µL membrane suspension were used per tube. IC50 values were calculated by a variable slope logistic regression using at least five distinct concentrations of test compound, pipetted in triplicates.
# [2] = target: T2, human mAChR M2 (Homo sapiens, UniProt P08172); experiment: competitive radioligand binding assay with [3H]NMS on CHO cell membranes, M2; details: n ≥ 3, ± standard deviation, read-out: Inhibition constants (Ki) M2
# T2 construct: host or cells: CHO-K1
# T2 sequence (P08172 1-466): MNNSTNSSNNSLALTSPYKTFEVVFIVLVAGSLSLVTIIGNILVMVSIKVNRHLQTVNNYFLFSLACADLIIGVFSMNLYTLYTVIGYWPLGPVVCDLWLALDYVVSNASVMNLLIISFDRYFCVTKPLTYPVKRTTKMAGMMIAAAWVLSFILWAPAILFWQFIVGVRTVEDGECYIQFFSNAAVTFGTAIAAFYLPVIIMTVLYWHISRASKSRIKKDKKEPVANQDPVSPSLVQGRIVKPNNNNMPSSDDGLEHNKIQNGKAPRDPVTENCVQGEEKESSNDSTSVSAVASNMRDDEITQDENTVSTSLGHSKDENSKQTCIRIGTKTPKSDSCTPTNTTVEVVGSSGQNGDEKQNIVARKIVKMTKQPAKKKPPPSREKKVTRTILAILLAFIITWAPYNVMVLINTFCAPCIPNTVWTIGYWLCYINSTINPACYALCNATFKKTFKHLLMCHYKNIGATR
# Method: as §1, §2
# [3] = target: T3, human mAChR M3 (Homo sapiens, UniProt P20309); experiment: competitive radioligand binding assay with [3H]NMS on CHO cell membranes, M3; details: n ≥ 3, ± standard deviation, read-out: Inhibition constants (Ki) M3
# T3 construct: host or cells: CHO-K1
# Method: as §1, §2
# [4] = target: T4, human mAChR M4 (Homo sapiens, UniProt P08173); experiment: competitive radioligand binding assay with [3H]NMS on CHO cell membranes, M4; details: n ≥ 3, ± standard deviation, read-out: Inhibition constants (Ki) M4
# T4 construct: host or cells: CHO-K1
# T4 sequence (P08173 1-479): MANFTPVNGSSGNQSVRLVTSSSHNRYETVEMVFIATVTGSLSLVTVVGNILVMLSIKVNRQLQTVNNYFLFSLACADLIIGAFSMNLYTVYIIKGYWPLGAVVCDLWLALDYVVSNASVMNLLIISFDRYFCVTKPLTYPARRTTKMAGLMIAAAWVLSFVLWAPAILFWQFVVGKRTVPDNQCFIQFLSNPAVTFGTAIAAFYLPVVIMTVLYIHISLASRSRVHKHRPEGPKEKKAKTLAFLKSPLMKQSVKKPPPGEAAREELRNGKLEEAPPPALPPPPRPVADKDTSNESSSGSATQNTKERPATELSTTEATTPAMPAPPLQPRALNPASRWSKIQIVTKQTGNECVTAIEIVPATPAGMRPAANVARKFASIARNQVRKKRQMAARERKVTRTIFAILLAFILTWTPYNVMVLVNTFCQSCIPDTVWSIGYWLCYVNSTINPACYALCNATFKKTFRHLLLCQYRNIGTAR
# Method: as §1, §2
# [5] = target: T5, human mAChR M5 (Homo sapiens, UniProt P08912); experiment: competitive radioligand binding assay with [3H]NMS on CHO cell membranes, M5; details: n ≥ 3, ± standard deviation, read-out: Inhibition constants (Ki) M5
# T5 construct: host or cells: CHO-K1
# T5 sequence (P08912 1-532): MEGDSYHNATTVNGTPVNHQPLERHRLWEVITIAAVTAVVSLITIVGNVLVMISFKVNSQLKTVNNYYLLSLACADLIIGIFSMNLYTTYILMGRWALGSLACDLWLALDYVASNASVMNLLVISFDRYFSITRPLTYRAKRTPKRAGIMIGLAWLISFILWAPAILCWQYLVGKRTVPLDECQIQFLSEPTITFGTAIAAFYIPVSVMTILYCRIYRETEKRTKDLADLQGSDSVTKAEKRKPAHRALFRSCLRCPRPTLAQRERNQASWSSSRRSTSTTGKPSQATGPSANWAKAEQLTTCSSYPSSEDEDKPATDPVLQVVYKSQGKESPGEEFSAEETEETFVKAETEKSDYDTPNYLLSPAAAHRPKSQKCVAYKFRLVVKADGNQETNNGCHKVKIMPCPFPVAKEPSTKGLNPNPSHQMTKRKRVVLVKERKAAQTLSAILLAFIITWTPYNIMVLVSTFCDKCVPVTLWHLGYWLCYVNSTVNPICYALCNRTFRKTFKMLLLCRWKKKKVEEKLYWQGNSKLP
# Method: as §1, §2
# [6] = HPLC-logP determination; format: physicochemical; details: HPLC on apHERA stationary phase (5 µm, 10 × 6 mm), pH 7.4; read-out: HPLC-logPow pH7.4
# [7] = stability in DPBS at 37 °C (UV-HPLC); format: physicochemical; details: for decomposition after 60 h: Sidak's multiple comparisons test; for decomposed after 2 h: linear interpolation between 0 h and 10 h
# Method: (§3) First, 1089 µL DPBS or Ham’s F12 nutrient mixture were mixed with 11 µL of 10 mM stock solution of 1, 2, or 3 in DMSO (final DMSO content: 1%) and agitated at 37 °C. Then, 80 µL of the solution was analyzed by UV-HPLC (216 nm) using an XSelect™ (HSS T3, 3.5 μm, 100 × 4.6 mm) stationary phase and 40% acetonitrile in 25 mM (NH4)H2PO4 buffer (pH 9.3) at a flow of 1 mL/min (k1,2 = 5.6, k3 = 5.9). The fraction of stable compounds was calculated as the area under the curve of the compound peak for each combination of compound and matrix related to the 0 h time point with 100%. Three non-consecutive HPLC analyses were performed for each time point, combination of compounds, and matrix.
# [8] = stability in Ham's F12 cell culture medium at 37 °C (UV-HPLC); format: physicochemical; details: for decomposed after 2 h: linear interpolation between 0 h and 10 h
# Method: as §3
# [9] = target: T1, mAChR M1; experiment: Fluo-4 direct calcium assay, agonist mode, CHO-M1 cells; format: cell-based; details: 0.001-100 µM
# Method: (§4) For the Fluo-4 direct^TM calcium assay kit (invitrogen), 100 µL of a 5 × 10^5 cells/mL suspension of CHO-M1 cells were seeded in black clear bottom 96-well plates (Corning). After settling of the cells for 24 h, the kit was performed according to the supplier’s recommendation. In detail, the media was removed, and 50 µL of Hanks-balanced salt solution (HBSS; Sigma Aldrich) were added, followed by 50 µL of the Fluo-4 buffer solution (including probenecid). The 96-well plates were incubated for 60 min at 37 °C in the dark. For the agonist assay, 100 µL of a double-concentrated dilution series of carbachol (positive control), 1, 2, and 3 were added with the end concentration of 100, 10, 1, 0.1, 0.01 and 0.001 µM in duplicates. The relative fluorescence was measured with an excitation wavelength of 494 nm and an emission wavelength of 516 nm. For the antagonist assay, 50 µL of a 4-fold concentrated dilution series of scopolamine hydrochloride (positive control), 1, 2, and 3 were added in duplicates. Subsequently a 40 µM stock solution of carbachol was added to all wells, and the relative fluorescence was measured with an excitation wavelength of 494 nm and an emission wavelength of 516 nm. Stock solution of 1, 2, and 3 were in DMSO with a final concentration of at most 1% of DMSO. All experiments were performed at least in three repetitions.
# [10] = target: T1, mAChR M1; experiment: Fluo-4 direct calcium assay, antagonist mode (block of carbachol response), CHO-M1 cells; format: cell-based; details: 20 µM carbachol
# Method: as §4
# [11] = pH 7.4; cited from earlier work
# T3 sequence (P20309 whole entry): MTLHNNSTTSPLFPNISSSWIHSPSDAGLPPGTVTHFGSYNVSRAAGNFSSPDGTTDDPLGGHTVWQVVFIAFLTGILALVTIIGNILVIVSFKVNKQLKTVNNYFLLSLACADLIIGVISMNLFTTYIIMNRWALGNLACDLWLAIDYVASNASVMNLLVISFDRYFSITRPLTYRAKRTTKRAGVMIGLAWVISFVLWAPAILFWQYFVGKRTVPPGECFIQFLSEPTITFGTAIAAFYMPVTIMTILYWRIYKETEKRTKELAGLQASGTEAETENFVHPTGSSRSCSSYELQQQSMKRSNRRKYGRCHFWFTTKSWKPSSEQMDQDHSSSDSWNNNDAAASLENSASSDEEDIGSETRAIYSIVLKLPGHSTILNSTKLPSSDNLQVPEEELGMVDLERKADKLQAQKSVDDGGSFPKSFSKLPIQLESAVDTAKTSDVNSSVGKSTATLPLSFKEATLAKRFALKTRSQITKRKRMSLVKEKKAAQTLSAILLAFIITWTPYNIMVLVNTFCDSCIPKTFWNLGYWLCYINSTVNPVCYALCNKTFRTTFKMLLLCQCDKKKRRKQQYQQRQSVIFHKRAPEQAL
Structure (SMILES),Ki [1] [nM],Ki [2] [nM],Ki [3] [nM],Ki [4] [nM],Ki [5] [nM],chromatographic logD [6],decomposition after 60 h [7],decomposed after 2 h [7] [%],decomposed after 2 h [8] [%],calcium release (agonistic activity) [9],functionality (block of calcium response to carbachol) [10],HPLC-logPow pH7.4 [11],selectivity between M1 and M2 ([1]; Ki M2 divided by Ki M1) [fold],"M1 over M4 subtype selectivity ([1]; Ki M4 divided by Ki M1, Ki values of this work) [fold]",decomposition after 60 h [8]
"CN1CCC=C(C(=O)O[C@@H](c2ccccc2)[C@H](O)c2ccccc2)C1 (racemic) [compound 3, Rac. (1S,2R)-2-hydroxy-1,2-diphenylethyl 1-methyl-1,2,5,6-tetrahydropyridine-3-carboxylate]",380 ± 90,3700 ± 1000,3200 ± 500,1600 ± 200,970 ± 90,2.39 ± 0.1,decomposed to the same extent,0.8,2.5,no increase in calcium release,antagonistic binding,,,,
CN1CCC=C(C(=O)OC(c2ccccc2)c2ccccc2)C1 [arecaidine diphenylmethyl ester],,,,,,,,,,,,3.32 ± 0.04,,,
"CN1CCC=C(C(=O)O[C@H](c2ccccc2)[C@H](O)c2ccccc2)C1 [compound 1, (1R,2R)-(+)-2-hydroxy-1,2-diphenylethyl 1-methyl-1,2,5,6-tetrahydropyridine-3-carboxylate]",99 ± 19,1900 ± 300,1300 ± 600,700 ± 300,600 ± 75,2.24 ± 0.12,decomposed to the same extent,0.8,2.5,no increase in calcium release,antagonistic binding,,19,7,significantly stronger compared to 2
"CN1CCC=C(C(=O)O[C@@H](c2ccccc2)[C@@H](O)c2ccccc2)C1 [compound 2, (1S,2S)-(−)-2-hydroxy-1,2-diphenylethyl 1-methyl-1,2,5,6-tetrahydropyridine-3-carboxylate]",800 ± 200,8000 ± 2000,1600 ± 300,2700 ± 600,1300 ± 300,2.24 ± 0.12,decomposed to the same extent,0.8,2.5,no increase in calcium release,antagonistic binding,,,,
